This is an account of results in US6476077B1, “N-(2-phenyl-4-amino-butyl)-1-naphthamides as neurokinin-1 receptor antagonists” (Astrazeneca AB, priority 1999, dated 2002).

For this test, the target named is T1, NK1 receptor (Oryctolagus cuniculus, UniProt G1SEI7).
T1 construct: The pulmonary arteries are isolated from the rest of the tissues and cut in half to serve as pairs; from tissue; host or cells: rabbit pulmonary artery rings (male New Zealand white rabbit)
The experiment in a line: Rabbit Pulmonary Artery: NK1 in vitro functional assay (Test C). It counts as biochemical. The conditions noted are these: rabbit pulmonary artery rings; antagonism of relaxation by agonist ASMSP; -log molar KB; read-out: NK1 pKb (Test C) (converted). The method, then: Rabbit Pulmonary Artery: NK1 in vitro functional assay (Test C)
The ability of a Compound of the invention to antagonize the action of the agonist Ac-[Arg^6, Sar^9, Met(O2)^11]
Male New Zealand white rabbits are euthanized via i.v. injection into an ear vein with 60 mg/kg Nembutal (50 mg/ml). Preceding the Nembutal into the vein is Heparin (1000 units/ml) at 0.0025 ml/kg for anticoagulant purposes. The chest cavity is opened from the top of the rib cage to the sternum and the heart, lungs and part of the trachea are removed. The pulmonary arteries are isolated from the rest of the tissues and cut in half to serve as pairs.
The segments are suspended between stainless steel stirrups, so as not to remove any of the endothelium, and placed in water-jacketed (37.0° C.) tissue baths containing physiological salt solution of the following composition (mM): NaCl, 118.0; KCl, 4.7; CaCl2, 1.8; MgCl2, 0.54; NaH2PO4, 1.0; NaHCO3, 25.0; glucose, 11.0; indomethacin, 0.005(to inhibit cyclooxygenase); and dl-Propranolol, 0.001(to block β receptors); gassed continuously with 95% O2-5% CO2. Responses are measured on a Grass polygraph via Grass FT-03 transducers and the electrical signals (data) acquired using a Mi^2 software/hardware system for subsequent conversion to measures of relaxation. […]

T1 sequence (G1SEI7 1-407): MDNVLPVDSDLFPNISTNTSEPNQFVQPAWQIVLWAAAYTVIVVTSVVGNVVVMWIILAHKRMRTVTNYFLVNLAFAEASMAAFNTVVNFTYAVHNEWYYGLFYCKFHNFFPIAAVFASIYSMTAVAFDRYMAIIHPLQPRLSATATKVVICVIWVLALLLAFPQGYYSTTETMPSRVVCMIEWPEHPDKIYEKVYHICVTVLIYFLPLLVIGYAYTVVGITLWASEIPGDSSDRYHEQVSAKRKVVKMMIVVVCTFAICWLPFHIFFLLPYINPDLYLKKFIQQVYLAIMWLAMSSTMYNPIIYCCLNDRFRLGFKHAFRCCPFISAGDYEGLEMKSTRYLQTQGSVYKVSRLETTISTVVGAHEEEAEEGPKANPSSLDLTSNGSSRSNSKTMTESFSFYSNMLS

Take `COc1c(C#N)cc2ccccc2c1C(=O)N(C)CC(CCN1CCOCC1)c1ccc(Cl)c(Cl)c1` (centres unmarked) [Example 4]: the Kb was 5.01 nM.

In the case of `COc1c(C#N)cc2ccccc2c1C(=O)N(C)CC(CCN(C)C)c1ccc(Cl)c(Cl)c1` (centres unmarked) [Example 6], the Kb is 2 nM.
